Measurements: ChEMBL document CHEMBL1154198, “Chemical genetics of Plasmodium falciparum” (Nature, 2010)

How the values were obtained:
[1] = test system: Plasmodium falciparum; assay: ST_JUDE: Plasmodium falciparum 3D7 EC50 (uM) as measured by SYBR green dye; format: functional, organism-based
[2] = test system: Plasmodium falciparum; assay: ST_JUDE: Plasmodium falciparum K1 EC50 (uM) as measured by SYBR green dye; format: functional, organism-based

Row | EC50 [1] [µM] | EC50 [2] [µM] | Structure (SMILES)
1 | 1.06 | 2.98 | CCN1CCN(c2cc(C)c3cc(NC(=O)/C=C/c4ccccc4OC(C)C)ccc3n2)CC1
2 | > 15 | > 15 | O=C(O)c1ccc(CN2C(=O)c3ccccc3C2=O)cc1
3 | 1.77 | 2.44 | Oc1c(C(Nc2ccccn2)c2cccc(Cl)c2Cl)ccc2cccnc12 (centres undefined)
4 | 2.41 | 3.79 | COc1ccc(OC)c(C2CC(=O)C3=C(C2)NC(=O)CC3c2ccc(OC)c(OC)c2)c1 (centres undefined)
5 | 3 | 3.03 | Cc1c(C=O)c2ccccc2n1CC(=O)Nc1cccc(I)c1
6 | 0.207 | 0.151 | Oc1ccccc1/C=N\c1ccc(-c2nc3cc(-c4ccc5[nH]c(-c6ccc(/N=C\c7ccccc7O)cc6)nc5c4)ccc3[nH]2)cc1
7 | 1.11 | 0.974 | CCC1(C)CC(CCNCc2ccc(F)cc2)(c2ccc(C)cc2)CCO1 (centres undefined)
8 | 3.41 | 6.76 | CCOc1ccc2nc(C)cc(Nc3cccc(OC)c3)c2c1
9 | > 15 | 6.63 | CC(=O)c1c(C(C)=O)c(C)n(Cc2ccc(Cl)cc2)c1C
10 | 9.81 | > 15 | COc1cc(SC)ccc1C(=O)N1CCCC(C)C1 (centres undefined)
11 | 1.75 | 3.25 | O=[N+]([O-])c1ccc(O)c(-c2cc(C(F)(F)F)nc(-c3ccccc3)n2)c1
12 | 1.69 | 0.822 | CCCCCN1COc2ccc3c4c(c(=O)oc3c2C1)CCCC4
13 | > 15 | > 15 | CCc1c(C)nc(-n2nc(C)cc2NC(=O)c2ccc(C(C)(C)C)cc2)nc1O
14 | 2.89 | 0.28 | Cc1ccc(/C=C2\Oc3c(ccc(O)c3CN3CCCCC3)C2=O)cc1
15 | > 15 | > 15 | CCc1ccc(C2c3c(-c4ccccc4O)n[nH]c3C(=O)N2CCCOC(C)C)cc1 (centres undefined)
16 | 2.9 | 1.72 | Cc1ccc2c(c1)c1c(n2CC(O)CNC2CCCC2)CCCC1 (centres undefined)
17 | > 15 | > 15 | Brc1ccc(C2=CC(c3ccccc3)n3ncnc3N2)cc1 (centres undefined)
18 | 2.54 | 4.07 | CC(C)Nc1c2ccccc2nc2ccccc12
19 | 3.42 | 2.23 | O=C(N1CCCN(C(=O)C(Cl)(Cl)Cl)CC1)C(Cl)(Cl)Cl
20 | > 15 | 4.15 | CCCCCCc1cc(O)c2c(C)cc(=O)oc2c1
21 | > 15 | > 15 | CCCc1cc(O)nc(-n2nc(C)cc2NC(=O)c2ccc(C)cc2)n1
22 | > 15 | 3.17 | COc1cc(CNc2cc(Cl)ccc2C)cc(I)c1OC

Row | EC50 [1] [µM] | EC50 [2] [µM] | Structure (SMILES)
23 | 1.51 | 4.17 | Cc1cccc(NC(c2ccc(F)cc2)c2ccc3cccnc3c2O)n1 (centres undefined)
24 | 2.89 | 4.87 | CCOC(=O)c1c(CNCCN(CC)CC)n(C)c2cc(Br)c(O)cc12
25 | > 15 | > 15 | CN1CCN(c2ccc(-c3cccc(NC(=O)c4cccc(F)c4)c3)nn2)CC1
26 | > 15 | > 15 | Cc1ccc(CNC(=O)/C=C/c2ccc([N+](=O)[O-])cc2)cc1
27 | 3.44 | 4.78 | CC(C)CN1C(=O)c2ccccc2C(C(=O)Nc2ccc(Cl)cn2)C1c1cccs1 (centres undefined)
28 | > 15 | > 15 | COc1ccc(CCN2C(=O)c3[nH]nc(-c4ccccc4O)c3C2c2ccc(F)cc2)cc1 (centres undefined)
29 | > 15 | 2.1 | Oc1ccccc1Nc1nc(-c2cccnc2)nc2ccccc12
30 | > 15 | > 15 | OCCC1CN(Cc2c(F)cccc2F)CCN1Cc1ccc(F)cc1 (centres undefined)
31 | 0.481 | 8.12 | Cc1ccc(Cl)cc1NC(=O)c1c(-c2c(Cl)cccc2Cl)noc1C
32 | 3.15 | 0.795 | CCOc1cccc(CNC2CC(C)(C)Cc3c2cnn3-c2ccc(C)cc2)c1O (centres undefined)
33 | > 15 | > 15 | CCCCn1c(=O)c2c(nc3n(-c4ccc(C)c(Cl)c4)c(C)cn23)n(C)c1=O
34 | 5.24 | 4.22 | Cc1ccc(-n2cc(CN3CCCC(C(N)=O)C3)c(-c3cccc(C)c3)n2)cc1 (centres undefined)
35 | 2.2 | 3.43 | CCCC(=O)NC(c1ccccc1OC)c1ccc2cccnc2c1O (centres undefined)
36 | > 15 | 3.82 | Cc1ccc2sc(NNC(=O)c3ccc(S(=O)(=O)N(C)C)cc3)nc2c1C
37 | > 15 | > 15 | Cc1ccc(/C=N/NC(=O)COc2ccc(Cl)cc2Cl)c(O)c1
38 | 0.256 | 0.191 | CCN(CC)CCNC(=O)c1c(C)oc2c1C(=O)c1ccccc1C2=O
39 | > 15 | > 15 | COc1nc(-c2ccncc2)nc2ccccc12
40 | > 15 | > 15 | CCOc1ccc(C(=O)Nc2cc(C)nn2-c2nc(C)c(CC)c(O)n2)cc1OCC
41 | 1.66 | 0.828 | O=C1CC(c2ccc(C(F)(F)F)cc2)C2=C(CC(c3ccccc3Cl)CC2=O)N1 (centres undefined)
42 | > 15 | > 15 | CSc1cccc(NC(=O)Cn2c(=O)sc3ccccc32)c1
43 | > 15 | > 15 | CCCCc1ccc(NS(=O)(=O)c2cc3c4c(c2)CCN4C(=O)CC3)cc1
44 | > 15 | > 15 | O=[N+]([O-])c1ccc(S(=O)(=O)N2CCN(C3CCC(c4ccccc4)CC3)CC2)cc1 (centres undefined)

Row | EC50 [1] [µM] | EC50 [2] [µM] | Structure (SMILES)
45 | 4.6 | 2.73 | CCCCC(O)(c1ccc(OC)cc1)C(CN1CCCCC1)c1ccccc1 (centres undefined)
46 | > 15 | > 15 | CCOCCCn1c(=N)c(C(=O)NCc2cccnc2)cc2c(=O)n3cccc(C)c3nc21
47 | 3.12 | 6.57 | CCn1c2c(c(=N)c3c1CCC3)CCCC2
48 | > 15 | > 15 | CCCC(=O)NC(c1ccccc1Cl)c1cc(Cl)c2cccnc2c1O (centres undefined)
49 | > 15 | 4.38 | O=C1CC(c2ccc(Cl)c(Cl)c2)C2=C(CC(c3ccc(F)cc3)CC2=O)N1 (centres undefined)
50 | > 15 | > 15 | c1cncc(CN2CCN(Cc3cccc4ccccc34)CC2)c1
51 | > 15 | > 15 | O=C(Cc1ccccc1)NC(c1ccc(Cl)cc1)c1c(O)ccc2ccccc12 (centres undefined)
52 | > 15 | > 15 | CCOC(=O)c1c(NC(=S)NCCc2ccccc2)sc2c1CC(C)(C)OC2
53 | 0.368 | 0.492 | CC1CCN(Cc2c(O)ccc3ccccc23)CC1
54 | > 15 | 6.11 | COc1cc(/C=C/c2ccc3cccc(OC(C)=O)c3n2)cc(Cl)c1OC
55 | 0.0668 | 0.154 | CCN1/C(=C/c2sc3ccc(C(=O)OC)cc3[n+]2CC)C=Cc2cc(OC)ccc21
56 | 4.78 | 4.96 | CC(C)c1ccc(NC(=O)CSc2n[nH]c(-c3ccccc3Cl)n2)cc1
57 | > 15 | > 15 | O=C(Nc1ccc2oc(-c3ccc(F)cc3Cl)nc2c1)C(Cl)(Cl)Cl
58 | > 15 | > 15 | Cc1ccc(NC2=NC(=O)CC(C(=O)Nc3ccc(C(C)C)cc3)S2)cc1C (centres undefined)
59 | 1.41 | 1.49 | CCOCc1cc(CN2CCN(c3cccc(C(F)(F)F)c3)CC2)c(O)c2ncccc12
60 | > 15 | 4.24 | CCCOc1cc(Br)c(C2NC(S)=NC(c3ccccc3)=C2C(C)=O)cc1OCC (centres undefined)
61 | > 15 | 4.82 | CC(C)CN1CCN(Cc2cc(Cl)ccc2O)CC1CCO (centres undefined)
62 | 4.76 | 1.5 | COc1ccc(C(NC(=O)c2cccnc2)c2cc(Cl)c3cccnc3c2O)cc1 (centres undefined)
63 | 0.843 | 2.27 | Cc1ccc(Nc2nc(NCCO)c3ccccc3n2)cc1C
64 | 2.53 | 1.7 | COc1ccc2c(c1OC)C(=O)N1c3ccccc3N=C(c3ccc(C)cc3)CC21 (centres undefined)
65 | > 15 | > 15 | CC(C)(C)c1ccc(-c2nc(-c3ccncc3)no2)cc1
66 | 0.28 | 0.399 | CC(=O)N(C1=C(N2CCCC2)C(=O)c2ccccc2C1=O)C1CCCCC1

Row | EC50 [1] [µM] | EC50 [2] [µM] | Structure (SMILES)
67 | > 15 | > 15 | CCCCc1ccc2nc(C)c(CN(C)C3CCN(C)CC3)c(O)c2c1
68 | > 15 | > 15 | CC(=O)NCC(=O)NC1CC(C)(C)Cc2c1cnn2-c1ccccc1 (centres undefined)
69 | 1.64 | 4.25 | Cc1ccccc1-n1c(N)c(C#N)c2nc3ccccc3nc21
70 | 8.67 | > 15 | O=[N+]([O-])c1ccccc1C(Nc1ccccn1)c1cc(Cl)c2cccnc2c1O (centres undefined)
71 | 2.65 | 1.36 | CCCCCn1c(=N)n(CC(O)COc2cccc(C)c2)c2ccccc21 (centres undefined)
72 | 7.03 | 5.17 | Cc1cccc(NC(c2ccccc2C)c2ccc3ccc(C)nc3c2O)n1 (centres undefined)
73 | > 15 | > 15 | Cc1c(C(=O)Nc2cc(Cl)ccc2Cl)cccc1[N+](=O)[O-]
74 | > 15 | > 15 | Cc1c(Cl)cccc1NC(=O)c1ccccc1[N+](=O)[O-]
75 | > 15 | > 15 | O=C(CSc1nnc(-c2ccncc2)o1)Nc1ccccc1C(F)(F)F
76 | 10.6 | 3.09 | CC(C)(C)c1ccc(C(=O)Nc2c3c(nn2-c2ccc([N+](=O)[O-])cc2)CS(=O)(=O)C3)cc1
77 | > 15 | 4.28 | COc1ccc(OC)c(NC(=O)C2c3ccccc3C(=O)N(C)C2c2cccs2)c1 (centres undefined)
78 | 4.49 | 5.49 | COC(=O)C1=CN(Cc2ccc(C)cc2)C=C(C(=O)OC)C1c1cc(OC)c(OC)c(OC)c1
79 | 3.67 | 4 | CCc1cccc2c(C#N)cn(Cc3ccc(Br)cc3)c12
80 | > 15 | 1.39 | O=C(CSc1nccn1Cc1ccccc1Cl)Nc1cc(C(F)(F)F)ccc1Cl
81 | 4.1 | 4.97 | COc1ccc(OC)c2sc(N(Cc3cccnc3)C(=O)c3cccc(F)c3)nc12
82 | 5.46 | > 15 | CCN(CC)c1ccc(/C=N/NC(=O)c2cccc(NC(=O)c3ccc(C)cc3)c2)c(O)c1
83 | > 15 | > 15 | O=[N+]([O-])c1cc(C(F)(F)F)ccc1NCCCNS(=O)(=O)c1ccc(Cl)cc1
84 | 2.93 | 2.05 | CCCCc1ccc(NC(=O)CSc2nc3c(c(=O)n2C)SC(C)C3)cc1 (centres undefined)
85 | > 15 | > 15 | CCO/C(O)=C1\C(C)=NC2=C(C(=O)CC(c3ccc(Cl)cc3)C2)C1c1cc(F)ccc1F (centres undefined)
86 | 2 | 1.47 | CCCCN(C)Cc1c(O)ccc2c(=O)c(Oc3ccccc3OCC)c(C(F)(F)F)oc12

Row | Structure (SMILES) | EC50 [1] [µM] | EC50 [2] [µM]
87 | N=C(N)N/N=C/c1ccncc1 | 3.49 | > 15
